The values that follow come from ChEMBL document CHEMBL1127097, “Tetrazole amino acids as competitive NMDA antagonists” (Bioorg Med Chem Lett, 1993).

Experiment [1] addresses Glutamate [NMDA] receptor. The experiment in a line: Tested in vitro for the affinity against NMDA receptor by examining its ability to inhibit [3H]-CGS-19,755 binding. The format is protein-complex assay.
Another experiment relates to Mus musculus. The experiment in a line: Minimum effective dose tested by ip administration for its ability to block NMDA induced lethality in mice. It is filed as functional. Particulars: read-out: MED.
Experiment [2] concerns Glutamate [NMDA] receptor. The experiment in a line: Tested in vitro for the affinity against NMDA receptor in a cortical wedge assay; A- Compound acted as […]. The format is functional.
For experiment [3], the target named is Glutamate [NMDA] receptor. The experiment in a line: Tested in vitro for the affinity against NMDA receptor in a cortical wedge assay. The format is protein-complex assay.
Experiment [4] relates to Glutamate [NMDA] receptor. The experiment in a line: Tested in vitro for the affinity against NMDA receptor in a cortical wedge assay; A- compound acts as antagonist. It is filed as functional.

What is called IC50 is the concentration at which inhibition is half-maximal. Higher therefore signals a need for much substance. For `N[C@@H](CCc1nnn[nH]1)C(=O)O`, the IC50 in experiment [1] was 1.6 µM; in experiment [2], “Agonist”. Also, the minimal effective dose in the experiment on Mus musculus is greater than 160 mg/kg.
On to `O=C(O)C1CN(CCCc2nnn[nH]2)CCN1` (centres undefined), for which the IC50 in experiment [3] was determined as 16.3 µM; in experiment [1], 3.15 µM. In addition, the minimal effective dose with Mus musculus is 40 mg/kg.
The like results for `O=C(O)C1CN(Cc2nn[nH]n2)CCN1` (centres undefined) were, in that order, 8.2 µM, 1.67 µM and greater than 80 mg/kg.
As to `O=C(O)C1CN(CCc2nnn[nH]2)CCN1` (centres undefined), the IC50 in experiment [3] worked out at 4.7 µM; in experiment [1] it was 0.781 µM. Further, the minimal effective dose with Mus musculus came out at 160 mg/kg.
On to `N[C@H](Cc1nnn[nH]1)C(=O)O`, for which the IC50 in experiment [3] was greater than 100 µM; in experiment [1], 0.685 µM. The minimal effective dose with Mus musculus was greater than 160 mg/kg.
On to `N[C@H](CCc1nnn[nH]1)C(=O)O`, for which the IC50 in experiment [3] was 31.6 µM; in experiment [1] it was 0.925 µM. Further, the minimal effective dose in the experiment on Mus musculus was greater than 160 mg/kg.
The like results for `O=C(O)[C@H]1C[C@@H](Cc2nnn[nH]2)CCN1` were, in that order, 4.2 µM, 0.107 µM and 5 mg/kg.
In the same order, the values of `O=C(O)C1CN(CCCP(=O)(O)O)CCN1` (centres undefined) are 0.6 µM, 0.22 µM and 2.5 mg/kg.
In the same order, the values of `N[C@H](CCCCCP(=O)(O)O)C(=O)O` are 11.1 µM, 0.461 µM and 160 mg/kg.
In experiment [1], `O=C(O)C1CN(CCCCc2nnn[nH]2)CCN1` (centres undefined) gave an IC50 greater than 10 µM. Besides, in the experiment with Mus musculus, the minimal effective dose is greater than 80 mg/kg.
On to `N[C@@H](Cc1nnn[nH]1)C(=O)O`, for which the IC50 was greater than 100 µM in experiment [3] and 0.639 µM in experiment [1]. Also, the minimal effective dose with Mus musculus is greater than 160 mg/kg.
`NC(CCCCCc1nnn[nH]1)C(=O)O` (centres undefined): the IC50 in experiment [3] was greater than 100 µM; in experiment [1], greater than 10 µM. In addition, in the experiment with Mus musculus, the minimal effective dose was greater than 160 mg/kg.
In the case of `Cl.NC(CCCc1nnn[nH]1)C(=O)O` (centres undefined), the results for the IC50 in experiment [1] and in experiment [4] were 1.05 µM and “Antagonist”, respectively. Further, the minimal effective dose in the experiment on Mus musculus is greater than 160 mg/kg.
Consider `Cl.NC(CCCCc1nnn[nH]1)C(=O)O` (centres undefined), for which the figures for the IC50 in experiment [1] and in experiment [4] were 10 µM and “Antagonist”, respectively. Moreover, the minimal effective dose in the experiment on Mus musculus is greater than 160 mg/kg.
As for `Cl.NC(CCCCCCc1nnn[nH]1)C(=O)O` (centres undefined), the IC50 in experiment [3] is greater than 100 µM; in experiment [1] it was greater than 10 µM. Further, the minimal effective dose in the experiment on Mus musculus was greater than 160 mg/kg.
In the same order, the values of `N[C@H](CCCP(=O)(O)O)C(=O)O` are 3.7 µM, 0.177 µM and 160 mg/kg.
For the compound `O=C(O)[C@@H]1C[C@H](CP(=O)(O)O)CCN1` (single isomer, unassigned) [SELFOTEL], the IC50 in experiment [3] came out at 1.6 µM; in experiment [1] it was 0.054 µM.
